The values that follow come from article PMC9497102, “Thiosemicarbazone Derivatives Developed to Overcome COTI-2 Resistance” (Cancers, 2022).

Data set [1] can be described thus: pKa by UV-vis spectrophotometric titrations. The class given is physicochemical. To be noted: 30% (v/v) DMSO/H2O solution, I = 0.1 M (KCl), 25 °C. On the procedure:
(§1) The UV-vis spectra were recorded using an Agilent Cary 8454 diode array spectrophotometer in the 200 to 950 nm window, and the path length was varied between 1 and 5 cm, depending on the solubility (thus the applicable concentration). For the spectrophotometric titrations, the same instruments (Metrohm 665 Dosimat burette, Orion 710A pH-meter, Metrohm combined pH glass electrode) and experimental setup (ionic strength: 0.10 M (KCl); titrant: 0.10 M carbonate-free KOH solution in 30% (v/v) DMSO/H2O; samples: prepared in 30% (v/v) DMSO/H2O; calibration: method of Irving et al.; pH range: 1.0 to 13.5; and sample volume: 10 cm^3) were used as in our previous work. Argon overpressure was used for the Fe(II)-containing samples when the Fe(II) stock solution was added to the samples in tightly closed titration vessels, which were previously completely deoxygenated (for 20 min). Measurements were taken with ligands (10–80 μM, depending on solubility) in the presence of 1, 0.5, and 0.3 equiv. of Cu(II), Fe(II), and Fe(III) ions. Equilibrium constants, such as the proton dissociation constants (pKa) of the ligands, the overall stability constants (logβ) of the metal complexes, and the UV-vis spectra of the individual ligand or complex species were computed using the program PSEQUAD [18], as was the case in our previous works.

Data set [2] in a line: Thermodynamic solubility in water at pH 7.4 (UV-vis). Type of data set: physicochemical. To be noted: water at pH 7.4 (20 mM HEPES buffer), aqueous buffer, thermodynamic from solid, water pH 7.4 (20 mM HEPES), 25 °C, read-out: S (meas.). On the procedure: (§2) The thermodynamic solubility of COTI-NMeCy, COTI-Nme2, COTI-NH2, and COTI-2 was measured for the saturated solutions in water at pH 7.4 (20 mM HEPES buffer) at 25.0 ± 0.1 °C. The concentrations of the compounds were determined by UV-vis spectrophotometry using stock solutions of the compounds with known concentrations dissolved in pure DMSO, and 50% and 1% (v/v) DMSO/buffered aqueous solution for the calibration. The parallel artificial membrane permeability assay (PAMPA) was applied for the ligands with a Corning Gentest pre-coated PAMPA Plate System. Peff values were calculated according to the equation reported by Yu et al..

The nature of data set [3]: Distribution coefficient, shake-flask n-octanol/buffer pH 7.4. Type of data set: physicochemical. To be noted: n-octanol/buffered aqueous solution; n-octanol/water, pH 7.4, 25 °C; read-out: log D7.4 (meas.). On the procedure: Distribution coefficient (D7.4) values of COTI-NH2 were determined by the shake-flask method in n-octanol/buffered aqueous solution at pH 7.4 in 20 mM phosphate buffer (0.10 M KCl) at 25.0 ± 0.2 °C following a similar approach to that reported in our previous works. The other compounds and all of their Cu(II) complexes were too lipophilic to obtain experimental data. Thus, the logP values were calculated for COTI-NMeCy, COTI-Nme2, and COTI-2 (MarvinSketch,version 16.12.12.0, calculation module developed by ChemAxon (Budapest, Hungary), http://www.chemaxon.com/products/marvin/marvinsketch/ (accessed on 20 August 2022)).

Data set [4] can be described thus: Parallel artificial membrane permeability assay (PAMPA). The class given is in vitro ADME. To be noted: pH 7.4, 25 °C, read-out: Peff. On the procedure: as §2
Data set [5] in a line: Iron(III) complex formation, UV-vis spectrophotometric titrations. Type of data set: physicochemical. On the procedure: as §1
Data set [6] in a line: Iron(II) complex formation, UV-vis spectrophotometric titrations (anaerobic). Type of data set: physicochemical. On the procedure: as §1
A short description of data set [7]: Copper(II) complex formation, UV-vis titrations and EDTA competition. Type of data set: physicochemical. On the procedure: as §1
The conditional stability constants (β’) of the Cu(II) complexes were calculated from competition reactions with EDTA at pH = 5.9 using MES (50 mM) when the metal:ligand ratio was 1:1 (clig = cCu between 10 and 80 μM). Individual samples were prepared in which the ligand:EDTA ratio was variable between 1:0 and 1:50. After a 3 h incubation period, UV-vis spectra were collected. The calculation of the β’ (CuL) values was performed following the same method as that in our previous work using the logβ’5.90 = 13.89 of complex [Cu(EDTA)]^2− obtained from the previously reported equilibrium constants of EDTA and its Cu(II) complex.

Data set [8] can be described thus: Zinc(II) complex formation, UV-vis spectrophotometric titrations. Type of data set: physicochemical.
Data set [9] in a line: Cyclic voltammetry of copper(II)–ligand (1:1) systems. The class given is physicochemical. To be noted: cL = cCu(II) = 1 mM, pH 7.40, 25 °C, 90% (v/v) DMSO/H2O, 0.01 V/s scan rate. On the procedure: (§3) Cyclic voltammograms for the Fe(III) and Cu(II) complexes were recorded in 90% (v/v) DMSO/water solution containing 1 mM ligand and 0.5 mM FeCl3 or 1 mM CuCl2 using a conventional three-electrode system under nitrogen atmosphere and a PC-Controlled Electrochemical Measurement System (EF 451). The ionic strength was 0.10 M, adjusted by TBAN. Samples were purged for 15 min with Ar before recording the cyclic voltammograms. Platinum electrodes were used as the working and auxiliary electrodes, and Ag/AgCl (3 M KCl) was applied as the reference electrode. The electrochemical potentials were converted into the normal hydrogen electrode (NHE) scale by adding 0.222 V. The instrument was calibrated with an aqueous solution of K3[Fe(CN)6] (E1/2 = +0.386 V vs. NHE). Redox potentials were obtained at different scan rates (5–25 mV/s) in the range of −0.8 to +0.1 V. The dependence of the peak current values of the square root of the scan rates is shown in Figure S5 for the iron and copper complexes of COTI-NMeCy.

For data set [10], the system named is SW480 cells. The arrangement: method as in PMID 33190481. To be noted: 72 h, MTT; cited from earlier work.
Data set [11] relates to SW480/Coti cells. The arrangement: method as in PMID 33190481. To be noted: cited from earlier work; for IC50: 72 h, MTT; for Relative Resistance SW480/Coti: IC50 of resistant subline divided by IC50 of parental SW480.
Data set [12] relates to SW480/Tria cells. The arrangement: method as in PMID 33190481. To be noted: cited from earlier work; for IC50: 72 h, MTT; for Relative Resistance SW480/Tria: IC50 of resistant subline divided by IC50 of parental SW480.
The test system of data set [13] is GLC-4 cells. Further details: method as in PMID 33190481. To be noted: 72 h, MTT; cited from earlier work.
Data set [14] relates to GLC-4/adr cells (ABCC1-overexpressing). The arrangement: method as in PMID 33190481. To be noted: cited from earlier work; for IC50: 72 h, MTT; for Relative Resistance GLC-4/adr: IC50 of GLC-4/adr divided by IC50 of parental GLC-4.
On the set-up of data set [15]: method as in PMID 33190481. To be noted: after formation of mixed-ligand GSH adduct; cited from earlier work.
A short description of data set [16]: Cyclic voltammetry of iron(III)–ligand (1:2) systems. The class given is physicochemical. To be noted: cL = 1 mM, pH 7.40, 25 °C, 90% (v/v) DMSO/H2O, 0.01 V/s scan rate. On the procedure:
as §3

On the set-up of data set [17]: method as in doi:10.1002/ejic.201200360. To be noted: cited from earlier work.
On the set-up of data set [18]: method as in doi:10.1002/ejic.200901174. To be noted: cited from earlier work.
On the set-up of data set [19]: method as in PMID 21523301. To be noted: cited from earlier work.
[20] abbreviates: T = 25.0 °C, I = 0.10 M (KCl), 30% (v/v) DMSO/H2O.
[21] abbreviates: calculated at cM = 1 μM, cL = 10 μM, pH = 7.40.

≈ marks a conversion by molar mass, not a printed value. Read-outs that look alike come from different tables or passages of the source. Marks after values point to notes of the source that are not given here.

Regarding `NC(=S)N/N=C1\CCCc2cccnc21` [COTI-NH2], in data set [1] (read-out: pKa (H2L)), the pKa is 4.39 ± 0.01. For the same molecule, the pKa in [1] (read-out: pKa (HL)) is 12.22 ± 0.01. Moreover, in data set [2], the solubility thermodynamic turned out to be 737 µM (≈ 162 µg/mL). Also, the logD in data set [3] was determined as 1.64. The Papp in data set [4] amounted to 6.7 ± 0.7 ×10⁻⁶ cm/s. Further, the “pFe(III)*” value in data set [5] (Fe(III) hydroxido species also considered as unbound metal, cFe = 1 μM, cL = 10 μM, pH = 7.40) came to 10.4. In addition, in data set [5] (setting [20]), the “logβ [Fe(III)L2]^+” value is recorded as 32.29 ± 0.08 and the “logβ [Fe(III)L]^2+” value is given as 20.00 ± 0.09. For the same molecule, in [5] (–log[free Fe(III)] calculated at cFe = 1 μM, cL = 10 μM, pH = 7.40), the “pFe(III)” value is reported as 18.5. Also, in data set [6] (setting [20]), the “logβ [Fe(II)L2]” value was found to be 31.21 ± 0.09 and the “logβ [Fe(II)L]^+” value was 17.36 ± 0.06. The “pFe(II)” value in data set [6] (–log[free Fe(II)] calculated at cFe = 1 μM, cL = 10 μM, pH = 7.40) was 17.4. The pCu in data set [7] (setting [21]) is listed as 13.1. Also, the “logβ5.9′ [CuL]^+” value in data set [7] (conditional stability constant, EDTA competition at pH = 5.90) worked out at 10.59 ± 0.08. In addition, the “logβ [CuL]^+” value in data set [7] (β = β’ × αH, [H+] = 10^–5.90 M) stood at 16.92. Moreover, in data set [8] (setting [20]), the “logβ [ZnL2]” value was 25.42 ± 0.04 and the “logβ [ZnL]^+” value was found to be 14.07 ± 0.04. Besides, the pZn in data set [8] (setting [21]) is given as 11.6. For the same molecule, in data set [9], the “E′ vs. NHE, copper(II)–ligand (1:1) systems” value was -0.17 V. In [10], the IC50 (as a rule, the concentration that gives 50% inhibition) is 7.85 ± 0.92 µM. For the same molecule, in data set [11], the half-maximal inhibitory concentration (IC50) is 4.39 ± 0.56 µM and the “Relative Resistance SW480/Coti” value is given as 0.6 ***. Also, in [12], the half-maximal inhibitory concentration (IC50) is more than 20 µM and the “Relative Resistance SW480/Tria” value was more than 2.5. The IC50 in data set [13] is 3.64 ± 0.39 µM. In data set [14], the half-inhibitory concentration (IC50) is 3.65 ± 0.41 µM and the “Relative Resistance GLC-4/adr” value is 1.0 ^n.s. Besides, in data set [15], the “redox reaction of the copper(II) complex with GSH” value is “relatively slow redox reaction took place”.
Regarding `NC(=S)NN=Cc1ncccc1N` [Triapine, 3-aminopyridine-2-carboxaldehyde thiosemicarbazone], the “E’ vs. NHE, iron(III)–ligand (1:2) systems” value in data set [16] is “+0.03 V”. Moreover, the “E′ vs. NHE, copper(II)–ligand (1:1) systems” value in data set [9] is -0.13 V. Moreover, the logD7.4 entry in data set [17] is recorded as “+0.85”. Besides, in [18], the “logβ [CuL]^+” value is on record as 13.9. Besides, the “E′ of the iron complex” value in data set [19] is “+0.07 V”. The 50% inhibitory concentration (IC50) is 0.82 ± 0.18 µM in data set [10]; 0.81 ± 0.08 µM in data set [11]; more than 50 µM in data set [12]; 0.65 ± 0.09 µM in [13]; 0.57 ± 0.05 µM in data set [14]. In addition, the “Relative Resistance SW480/Coti” value in data set [11] is 1.0 ^n.s. Moreover, the “Relative Resistance SW480/Tria” value in data set [12] is given as more than 61. Further, in [14], the “Relative Resistance GLC-4/adr” value is reported as 0.9 ^n.s.
